Activity change, negative = inhibition data for six compounds are collected here from PubChem BioAssay AID624361 (Broad Institute, 2012).

The experiment can be described thus: LMP1-induced NF-kB luciferase signal inhibition – cell-based, EBV LMP1, dry powder, set 2, dose response (AID 624361). To be noted: LMP1-induced NF-kappaB luciferase reporter cells, luminescence. Background: In a reporter assay the amount or activity of a reporter protein is the signal.

Inconclusive results are not listed. The source made the active and inactive calls. How the calls were made is not given here.

Take `C[C@H](NC(=O)C[C@H]1C=C[C@@H](NC(=O)Cc2ccccn2)[C@@H](CO)O1)c1ccccc1`: the activity change, negative = inhibition (at 35 µM (top of the series)) is 11% (inactive).

Turning to `CCC(=O)N1Cc2cc(C(=O)Nc3nccs3)nc(-c3cccc(-c4ccccc4OC)c3)c2[C@H]1CCO`, the activity change, negative = inhibition (at 35 µM (top of the series)) is -7.28% (inactive).

Regarding `C[C@@H](NC(=O)C[C@H]1C=C[C@@H](NC(=O)Cc2ccccn2)[C@@H](CO)O1)c1ccccc1`, the activity change, negative = inhibition (at 35 µM (top of the series)) is 0.795% (inactive).

As to `C[C@H](NC(=O)C[C@@H]1C=C[C@H](NC(=O)Cc2ccccn2)[C@H](CO)O1)c1ccccc1`, the activity change, negative = inhibition (at 30 µM (top of the series)) is -0.706% (inactive).

With `O=C(Cc1ccccn1)NCC[C@H]1CC[C@@H](NC(=O)Nc2ccc(Cl)cc2)[C@@H](CO)O1`, the activity change, negative = inhibition (at 35 µM (top of the series)) was -0.381% (inactive).

For the compound `C[C@@H]1CN([C@@H](C)CO)C(=O)c2c(c3ccccc3n2C)-c2ccccc2CO[C@H]1CN(C)C(=O)Nc1ccc(F)cc1`, the activity change, negative = inhibition (at 35 µM (top of the series)) is -8.29% (inactive).
